Source: US9714228B2, “Dihydrofuran derivatives as insecticidal compounds” (Syngenta Participations AG, priority 2010, dated 2017)

Assays:
Format in all cases: in vivo
[1] = system: Spodoptera littoralis; assay: Spodoptera littoralis, sprayed cotton leaf discs, L1 larvae; details: foliar, 72 h, cotton leaf discs sprayed at 200 ppm, 3 days after treatment
Excerpt: Spodoptera littoralis (Egyptian Cotton Leafworm): Cotton leaf discs were placed on agar in a 24-well microtiter plate and sprayed with test solutions at an application rate of 200 ppm. After drying, the leaf discs were infested with 5 L1 larvae. The samples were checked for mortality, feeding behavior, and growth regulation 3 days after treatment (DAT).

[2] = system: Heliothis virescens; assay: Heliothis virescens, eggs on treated artificial diet; details: 96 h, 200 ppm (concentration in well 18 ppm), 4 days incubation
Description: Heliothis virescens (Tobacco Budworm): Eggs (0-24 h old) were placed in 24-well microtiter plate on artificial diet and treated with test solutions at an application rate of 200 ppm (concentration in well 18 ppm) by pipetting. After an incubation period of 4 days, samples were checked for egg mortality, larval mortality, and growth regulation.

[3] = system: Plutella xylostella; assay: Plutella xylostella, L2 larvae on treated artificial diet; details: 144 h, 200 ppm (concentration in well 18 ppm), 6 days incubation
Description: Plutella xylostella (Diamond Back Moth): 24-well microtiter plate (MTP) with artificial diet was treated with test solutions at an application rate of 200 ppm (concentration in well 18 ppm) by pipetting. After drying, the MTPs were infested with L2 larvae (7-12 per well). After an incubation period of 6 days, samples were checked for larval mortality and growth regulation.

[4] = system: Diabrotica balteata; assay: Diabrotica balteata, L2 larvae on treated artificial diet; details: 120 h, 200 ppm (concentration in well 18 ppm), 5 days incubation
Description: Diabrotica balteata (Corn Root Worm): A 24-well microtiter plate (MTP) with artificial diet was treated with test solutions at an application rate of 200 ppm (concentration in well 18 ppm) by pipetting. After drying, the MTPs were infested with L2 larvae (6-10 per well). After an incubation period of 5 days, samples were checked for larval mortality and growth regulation.

[5] = system: Thrips tabaci; assay: Thrips tabaci, sprayed sunflower leaf discs; details: foliar, 168 h, sunflower leaf discs sprayed at 200 ppm, mixed ages, mortality after 7 days
Description: Thrips tabaci (Onion Thrips): Sunflower leaf discs were placed on agar in a 24-well microtiter plate and sprayed with test solutions at an application rate of 200 ppm. After drying, the leaf discs were infested with an […] population of mixed ages. After an incubation period of 7 days, samples were checked for mortality.

[6] = system: Tetranychus urticae; assay: Tetranychus urticae, sprayed bean leaf discs; details: foliar, 192 h, bean leaf discs sprayed at 200 ppm, mixed ages, checked 8 days later
Excerpt: Tetranychus urticae (Two-Spotted Spider Mite): Bean leaf discs on agar in 24-well microtiter plates were sprayed with test solutions at an application rate of 200 ppm. After drying, the leaf discs are infested with mite populations of mixed ages. 8 days later, discs are checked for egg mortality, larval mortality, and adult mortality.

[7] = system: Myzus persicae; assay: Myzus persicae (sachet), mixed population, sucrose solution; details: 120 h, application rate 12.5 ppm, mortality 5 days after infestation
Excerpt: Myzus persicae (Sachet) (Green Peach Aphid) Mixed Population Test compounds were applied by pipette into 24 well plates and mixed with Sucrose solution. The plates were closed with a stretched Parafilm. A plastic stencil with 24 holes is placed onto the plate and infested pea seedlings were placed directly on the Parafilm. The infested plate is closed with a gel blotting paper and another plastic stencil and then turned upside down. 5 days after infestation the samples were checked on mortality. Application rate: 12.5 ppm.

Cc1cc(C2=CC(c3cc(Cl)cc(Cl)c3)(C(F)(F)F)OC2)ccc1C(=O)NCc1ccc2c(c1)OCCO2 (centres unmarked) [Compound A44]
≥ 80%: pest or weed control at 200 ppm [1] | pest or weed control at 200 ppm [2] | pest or weed control at 200 ppm [3] | pest or weed control at 200 ppm [4]

Cc1cc(C2=CC(c3cc(Cl)cc(Cl)c3)(C(F)(F)F)OC2)ccc1C(=O)NC1CC(=NOCC(F)(F)F)C1 (centres unmarked) [Compound A79]
≥ 80%: pest or weed control at 200 ppm [1] | pest or weed control at 200 ppm [2] | pest or weed control at 200 ppm [3] | pest or weed control at 200 ppm [4] | pest or weed control at 200 ppm [5] | pest or weed control at 200 ppm [6]

CCCCNC(=O)c1ccc(C2=COC(c3cc(Cl)cc(Cl)c3)(C(F)(F)F)C2)cc1C (centres unmarked) [Compound D3]
≥ 80%: pest or weed control at 200 ppm [1] | pest or weed control at 200 ppm [2] | pest or weed control at 200 ppm [3] | pest or weed control at 200 ppm [4] | pest or weed control at 12.5 ppm [7] | pest or weed control at 200 ppm [5] | pest or weed control at 200 ppm [6]

COCC(C)NC(=O)c1ccc(C2=COC(c3cc(Cl)cc(Cl)c3)(C(F)(F)F)C2)cc1C (centres unmarked) [Compound D4]
≥ 80%: pest or weed control at 200 ppm [1] | pest or weed control at 200 ppm [2] | pest or weed control at 200 ppm [3] | pest or weed control at 200 ppm [4] | pest or weed control at 12.5 ppm [7] | pest or weed control at 200 ppm [5] | pest or weed control at 200 ppm [6]

Cc1cc(C2=COC(c3cc(Cl)cc(Cl)c3)(C(F)(F)F)C2)ccc1C(=O)NCCC(F)(F)F (centres unmarked) [Compound D6]
≥ 80%: pest or weed control at 200 ppm [1] | pest or weed control at 200 ppm [2] | pest or weed control at 200 ppm [3] | pest or weed control at 200 ppm [4] | pest or weed control at 12.5 ppm [7] | pest or weed control at 200 ppm [5] | pest or weed control at 200 ppm [6]

CCC(C)NC(=O)c1ccc(C2=COC(c3cc(Cl)cc(Cl)c3)(C(F)(F)F)C2)cc1C (centres unmarked) [Compound D7]
≥ 80%: pest or weed control at 200 ppm [1] | pest or weed control at 200 ppm [2] | pest or weed control at 200 ppm [3] | pest or weed control at 200 ppm [4] | pest or weed control at 12.5 ppm [7]

Cc1cc(C2=COC(c3cc(Cl)cc(Cl)c3)(C(F)(F)F)C2)ccc1C(=O)NCc1ccccc1 (centres unmarked) [Compound D9]
≥ 80%: pest or weed control at 200 ppm [1] | pest or weed control at 200 ppm [2] | pest or weed control at 200 ppm [3] | pest or weed control at 200 ppm [4] | pest or weed control at 12.5 ppm [7] | pest or weed control at 200 ppm [5] | pest or weed control at 200 ppm [6]

Cc1cc(C2=COC(c3cc(Cl)cc(Cl)c3)(C(F)(F)F)C2)ccc1C(=O)NCc1ccccc1F (centres unmarked) [Compound D10]
≥ 80%: pest or weed control at 200 ppm [1] | pest or weed control at 200 ppm [2] | pest or weed control at 200 ppm [3] | pest or weed control at 200 ppm [4] | pest or weed control at 12.5 ppm [7] | pest or weed control at 200 ppm [5] | pest or weed control at 200 ppm [6]

Cc1cc(C2=COC(c3cc(Cl)cc(Cl)c3)(C(F)(F)F)C2)ccc1C(=O)NC(C)c1ccccc1 (centres unmarked) [Compound D11]
≥ 80%: pest or weed control at 200 ppm [1] | pest or weed control at 200 ppm [2] | pest or weed control at 200 ppm [3] | pest or weed control at 200 ppm [4] | pest or weed control at 12.5 ppm [7] | pest or weed control at 200 ppm [5] | pest or weed control at 200 ppm [6]

COc1ccc(CNC(=O)c2ccc(C3=COC(c4cc(Cl)cc(Cl)c4)(C(F)(F)F)C3)cc2C)cc1 (centres unmarked) [Compound D12]
≥ 80%: pest or weed control at 200 ppm [1] | pest or weed control at 200 ppm [2] | pest or weed control at 200 ppm [3] | pest or weed control at 200 ppm [4] | pest or weed control at 12.5 ppm [7] | pest or weed control at 200 ppm [5] | pest or weed control at 200 ppm [6]

Cc1cc(C2=COC(c3cc(Cl)cc(Cl)c3)(C(F)(F)F)C2)ccc1C(=O)NCc1ccc(Cl)nc1 (centres unmarked) [Compound D13]
≥ 80%: pest or weed control at 200 ppm [1] | pest or weed control at 200 ppm [2] | pest or weed control at 200 ppm [3] | pest or weed control at 200 ppm [4] | pest or weed control at 12.5 ppm [7] | pest or weed control at 200 ppm [6]

Cc1cc(C2=COC(c3cc(Cl)cc(Cl)c3)(C(F)(F)F)C2)ccc1C(=O)Nc1cccc(F)c1 (centres unmarked) [Compound D14]
≥ 80%: pest or weed control at 200 ppm [1] | pest or weed control at 200 ppm [2] | pest or weed control at 200 ppm [3] | pest or weed control at 200 ppm [4] | pest or weed control at 12.5 ppm [7] | pest or weed control at 200 ppm [5] | pest or weed control at 200 ppm [6]

Cc1cc(NC(=O)c2ccc(C3=COC(c4cc(Cl)cc(Cl)c4)(C(F)(F)F)C3)cc2C)n(C)n1 (centres unmarked) [Compound D16]
≥ 80%: pest or weed control at 200 ppm [1] | pest or weed control at 200 ppm [2] | pest or weed control at 200 ppm [3] | pest or weed control at 200 ppm [4] | pest or weed control at 12.5 ppm [7] | pest or weed control at 200 ppm [5]

Cc1csc(NC(=O)c2ccc(C3=COC(c4cc(Cl)cc(Cl)c4)(C(F)(F)F)C3)cc2C)n1 (centres unmarked) [Compound D17]
≥ 80%: pest or weed control at 200 ppm [1] | pest or weed control at 200 ppm [2] | pest or weed control at 200 ppm [3] | pest or weed control at 200 ppm [4] | pest or weed control at 12.5 ppm [7]

CSCC(C)(C)NC(=O)c1ccc(C2=COC(c3cc(Cl)cc(Cl)c3)(C(F)(F)F)C2)cc1C (centres unmarked) [Compound D19]
≥ 80%: pest or weed control at 200 ppm [1] | pest or weed control at 200 ppm [2] | pest or weed control at 200 ppm [3] | pest or weed control at 200 ppm [4] | pest or weed control at 12.5 ppm [7] | pest or weed control at 200 ppm [6]

Cc1cc(C2=COC(c3cc(Cl)cc(Cl)c3)(C(F)(F)F)C2)ccc1C(=O)NC1CC2CCC1C2 (centres unmarked) [Compound D22]
≥ 80%: pest or weed control at 200 ppm [3] | pest or weed control at 200 ppm [4] | pest or weed control at 200 ppm [5]

N#Cc1cc(C2=CC(c3cc(Cl)cc(Cl)c3)(C(F)(F)F)OC2)ccc1-n1cc(Br)cn1 (centres unmarked) [Compound G2, 2-(4-Bromo-pyrazol-1-yl)-5-[5-(3,5-dichloro-phenyl)-5-trifluoromethyl-2,5-dihydro-furan-3-yl]-benzonitrile]
≥ 80%: pest or weed control at 200 ppm [1]
